Assays:
PANC-1 pERK = assay: Phospho-ERK 1/2 assay; assay type: cell-based; settings: PANC-1 cells, compound incubation 3 hours, pERK normalised with GAPDH antibody staining
Procedure: Allow PNAC-1 cell growth in a T75 flask in DMEM and 10% 1 fetal calf serum (FCS; Gibco®), using standard tissue culture procedures until ~80% confluency is achieved. Day 1, seed 6000 cells/well in 384 well plate and incubate at 37° C., 5% CO2. Add diluted compound by Echo 550, final DMSO is 0.5%, incubate cells at 37° C., 5% CO2 for 3 hours. Then, remove medium and fix cells with 3.7% formaldehyde in PBS (PFA) by Apricot. Wash with PBS once. Permeabilize cells with cold 100% methanol and repeat wash once with PBS once. Add Li-Cor blocking buffer to each well and incubate 1.5 hours at RT. Remove blocking buffer and add primary antibody mixture (rabbit anti pERK, mouse anti GAPDH). Incubate at 4° C. overnight. Day 2, wash with PBST (Tween-20 in PBS) with total 3 times and then add secondary antibody mixture (goat anti rabbit 800CW (1:800 dilution in the combined solution) and goat anti mouse 680RD (1:800 dilution in the combined solution)), incubate for 60 minutes at RT away from light. Repeat washing with PBST 3 times. After final wash, centrifuge plate up-side-down at 1000 rpm to remove wash solution completely from wells. Before plate scanning, clean the bottom plate surface and the Odyssey© Imager scanning bed (if applicable) with moist, lint-free tissue to avoid any obstructions during scanning. Scan plate with detection in both 700 and 800 nm channels.

[1] = In vivo oral bioavailability assay (mouse PK); settings: Balb/c mice female, IV bolus 1 mg/kg
Procedure: In Vivo Oral Bioavailability Assay (Mouse PK):
Single dose following IV bolus (1 mg/kg, 0.2 mg/mL in 1% DMSO, 99% SBE-β-CD (10% w/v) in water) and oral gavage (10 mg/kg~60 mg/kg) administration of test compound in Balb/c Mice female. The blood samples were collected at 2 min, 5 min, 10 min, 30 min, 1 hr, 2 hr, 4 hr, 8 hr and 24 hr (additional 32 hr and 48 hr for MRTX1133) after IV bolus, at 15 min, 30 min, 1 hr, 1.5 hr, 2 hr, 3 hr, 4 hr, 8 hr and 24 hr (additional 32 hr and 48 hr for MRTX1133) after PO administration. The plasma concentrations of compounds were determined with UPLC-MS/MS.

[2] = target: T1, P-glycoprotein (Pgp, MDR1) (Homo sapiens, UniProt P08183); assay: MDCK-MDR1 Pgp assessment; assay type: in vitro ADME; settings: dog, MDCK-MDR1 cells, read-out: Pgp Efflux Ratio (Pexact)
T1 construct: expressed in transfected cells; host or cells: MDCK-MDR1 cells
T1 sequence (P08183 whole entry): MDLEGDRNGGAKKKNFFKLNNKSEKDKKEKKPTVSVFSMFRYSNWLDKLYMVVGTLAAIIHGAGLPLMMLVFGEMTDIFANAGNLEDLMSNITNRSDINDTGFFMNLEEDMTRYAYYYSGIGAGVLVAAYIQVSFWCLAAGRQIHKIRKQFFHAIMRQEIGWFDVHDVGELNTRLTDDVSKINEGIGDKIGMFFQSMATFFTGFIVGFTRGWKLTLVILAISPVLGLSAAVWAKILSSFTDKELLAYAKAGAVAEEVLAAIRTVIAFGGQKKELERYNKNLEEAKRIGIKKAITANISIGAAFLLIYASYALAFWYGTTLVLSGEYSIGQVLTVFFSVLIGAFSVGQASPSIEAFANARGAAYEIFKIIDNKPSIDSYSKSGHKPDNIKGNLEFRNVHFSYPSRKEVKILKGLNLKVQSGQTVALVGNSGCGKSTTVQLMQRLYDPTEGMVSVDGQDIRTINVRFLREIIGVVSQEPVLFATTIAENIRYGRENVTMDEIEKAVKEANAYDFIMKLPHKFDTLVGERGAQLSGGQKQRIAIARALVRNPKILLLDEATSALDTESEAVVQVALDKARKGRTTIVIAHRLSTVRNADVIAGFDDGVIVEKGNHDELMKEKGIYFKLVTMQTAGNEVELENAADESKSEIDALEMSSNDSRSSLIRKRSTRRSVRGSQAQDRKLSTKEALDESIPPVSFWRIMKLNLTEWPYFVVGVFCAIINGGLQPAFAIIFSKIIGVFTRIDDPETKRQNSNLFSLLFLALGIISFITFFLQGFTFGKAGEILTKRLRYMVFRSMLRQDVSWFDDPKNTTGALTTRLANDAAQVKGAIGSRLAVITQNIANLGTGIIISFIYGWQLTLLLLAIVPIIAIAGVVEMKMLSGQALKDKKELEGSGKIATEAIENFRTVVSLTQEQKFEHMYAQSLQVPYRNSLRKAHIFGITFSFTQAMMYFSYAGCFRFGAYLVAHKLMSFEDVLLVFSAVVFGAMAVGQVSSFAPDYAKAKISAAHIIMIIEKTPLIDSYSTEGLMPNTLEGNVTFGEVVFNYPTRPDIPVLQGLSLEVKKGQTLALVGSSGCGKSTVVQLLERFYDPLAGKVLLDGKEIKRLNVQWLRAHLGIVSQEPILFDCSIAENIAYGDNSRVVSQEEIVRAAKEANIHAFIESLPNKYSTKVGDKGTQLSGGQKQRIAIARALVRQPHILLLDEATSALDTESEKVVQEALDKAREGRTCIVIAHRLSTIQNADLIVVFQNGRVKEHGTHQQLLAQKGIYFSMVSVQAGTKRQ
Procedure: Efflux transport mediated by P-glycoprotein (Pgp) was assessed by MDCK-MDR1 cells. The final concentrations of test compounds and control compound were at 1 μM. The multi-well insert plate was incubated at 37 ^9C for 2 hours. In order to reliably measure passive permeability coefficients, Pexact was reported, which automatically corrects for loss of compound.

C#Cc1c(F)ccc2cccc(-c3nc4c5c(nc(=O)n(C[C@@]67CCCN6CC(=C)C7)c5c3F)N3C[C@H]5CC[C@H](N5)[C@H]3[C@H](C)O4)c12 (single isomer, unassigned) [Example 200a]
IC50 (PANC-1 pERK; Homo sapiens, PANC-1, 3 h): 12 nM | Fa*Fg (%) ([1]; oral dose 10 mpk): 24% | bioavailability ([1]; mouse, plasma, oral dose 10 mpk): 15.8%

C#Cc1c(F)ccc2cccc(-c3nc4c5c(nc(=O)n(CC(C)(CO)N(C)C)c5c3F)N3C[C@H]5CC[C@H](N5)[C@H]3[C@H](C)O4)c12 (single isomer, unassigned) [Example 365a]
IC50 (PANC-1 pERK): 6 nM | efflux ratio at 2 h, 1 μM [2]: 8.4

CCc1c(F)ccc2cc(O)cc(-c3nc4c5c(nc(=O)n(CC(C)(CO)N(C)C)c5c3F)N3C[C@H]5CC[C@H](N5)[C@H]3[C@H](C)O4)c12 (single isomer, unassigned) [Example 373a]
IC50 (PANC-1 pERK): 6.4 nM | efflux ratio at 2 h, 1 μM [2]: 12.5

CCc1c(F)ccc2cc(O)cc(-c3nc4c5c(nc(=O)n(C[C@@]67CCCN6C[C@H](F)C7)c5c3F)N3C[C@@]5(C)CC[C@H](N5)[C@H]3[C@H](C)O4)c12 [Example 361, (5S,5aS,6S,9R)-2-(8-ethyl-7-fluoro-3-hydroxynaphthalen-1-yl)-1-fluoro-13-(((2R,7aS)-2-fluorotetrahydro-1H-pyrrolizin-7a(5H)-yl)methyl)-5,9-dimethyl-5a,6,7,8,9,10-hexahydro-5H-4-oxa-3,10a,11,13,14-pentaaza-6,9-methanonaphtho[1,8-ab]heptalen-12(13H)-one]
IC50 (PANC-1 pERK; Homo sapiens, PANC-1, 3 h): 43 nM

C=C1CN2CCC[C@@]2(Cn2c(=O)nc3c4c(nc(-c5cc(O)cc6ccc(F)c(CC)c56)c(F)c42)O[C@@H](C)[C@@H]2[C@@H]4CC[C@](C)(CN32)N4)C1 [Example 362, (5S,5aS,6S,9R)-2-(8-ethyl-7-fluoro-3-hydroxynaphthalen-1-yl)-1-fluoro-5,9-dimethyl-13-(((S)-2-methylenetetrahydro-1H-pyrrolizin-7a(5H)-yl)methyl)-5a,6,7,8,9,10-hexahydro-5H-4-oxa-3,10a,11,13,14-pentaaza-6,9-methanonaphtho[1,8-ab]heptalen-12(13H)-one]
IC50 (PANC-1 pERK; Homo sapiens, PANC-1, 3 h): 221 nM

C=C1CN2CCC[C@@]2(Cn2c(=O)nc3c4c(nc(-c5cc(O)cc6ccc(F)c(Cl)c56)c(F)c42)O[C@@H](C)[C@@H]2[C@@H]4CC[C@H](CN32)N4)C1 [Example 363, (5S,5aS,6S,9R)-2-(8-chloro-7-fluoro-3-hydroxynaphthalen-1-yl)-1-fluoro-5-methyl-13-(((S)-2-methylenetetrahydro-1H-pyrrolizin-7a(5H)-yl)methyl)-5a,6,7,8,9,10-hexahydro-5H-4-oxa-3,10a,11,13,14-pentaaza-6,9-methanonaphtho[1,8-ab]heptalen-12(13H)-one]
IC50 (PANC-1 pERK; Homo sapiens, PANC-1, 3 h): 88 nM

C#Cc1c(F)ccc2cccc(-c3nc4c5c(nc(=O)n(C[C@H]6CCN6C)c5c3F)N3C[C@H]5CC[C@H](N5)[C@H]3[C@H](C)O4)c12 [Example 366, (8S,8aS,9S,12R)-5-(8-ethynyl-7-fluoronaphthalen-1-yl)-4-fluoro-8-methyl-3-(((R)-1-methylazetidin-2-yl)methyl)-8a,9,10,11,12,13-hexahydro-8H-7-oxa-1,3,6,13a,14-pentaaza-9,12-methanonaphtho[1,8-ab]heptalen-2(3H)-one]
IC50 (PANC-1 pERK; Homo sapiens, PANC-1, 3 h): 272 nM

C#Cc1c(F)ccc2cccc(-c3nc4c5c(nc(=O)n(C[C@@]6(C)CCCN6C)c5c3F)N3C[C@H]5CC[C@H](N5)[C@H]3[C@H](C)O4)c12 [Example 367, (8S,8aS,9S,12R)-3-(((R)-1,2-dimethylpyrrolidin-2-yl)methyl)-5-(8-ethynyl-7-fluoronaphthalen-1-yl)-4-fluoro-8-methyl-8a,9,10,11,12,13-hexahydro-8H-7-oxa-1,3,6,13a,14-pentaaza-9,12-methanonaphtho[1,8-ab]heptalen-2(3H)-one]
IC50 (PANC-1 pERK; Homo sapiens, PANC-1, 3 h): 234 nM

CCc1c(F)ccc2cc(O)cc(-c3nc4c5c(nc(=O)n(C[C@H]6CCN6C)c5c3F)N3C[C@H]5CC[C@H](N5)[C@H]3[C@H](C)O4)c12 [Example 369, (8S,8aS,9S,12R)-5-(8-ethyl-7-fluoro-3-hydroxynaphthalen-1-yl)-4-fluoro-8-methyl-3-(((R)-1-methylazetidin-2-yl)methyl)-8a,9,10,11,12,13-hexahydro-8H-7-oxa-1,3,6,13a,14-pentaaza-9,12-methanonaphtho[1,8-ab]heptalen-2(3H)-one]
IC50 (PANC-1 pERK; Homo sapiens, PANC-1, 3 h): 400 nM

C#Cc1c(F)ccc2cccc(-c3nc4c5c(nc(=O)n(C(C)[C@H]6CCCN6C)c5c3F)N3C[C@H]5CC[C@H](N5)[C@H]3[C@H](C)O4)c12 (stereo partly drawn) [Example 370, (8S,8aS,9S,12R)-5-(8-ethynyl-7-fluoronaphthalen-1-yl)-4-fluoro-8-methyl-3-(1-((R)-1-methylpyrrolidin-2-yl)ethyl)-8a,9,10,11,12,13-hexahydro-8H-7-oxa-1,3,6,13a,14-pentaaza-9,12-methanonaphtho[1,8-ab]heptalen-2(3H)-one]
IC50 (PANC-1 pERK; Homo sapiens, PANC-1, 3 h): 271 nM

C#Cc1c(F)ccc2cc(O)cc(-c3ncc4c(N5CC6CCC(C5)N6)nc(OC[C@@]56CCCN5C[C@H](F)C6)nc4c3F)c12 [MRTX1133, reference compound]
Fa*Fg (%) ([1]; oral dose 30 mpk): 0.95%
